From patent publication US10494368B2, “Pesticidally active tetracyclic derivatives with sulfur containing substituents” (Syngenta Participations AG, priority 2015, dated 2019)

Columns and labels:
Format in all cases: in vivo
[1] = tested on: Diabrotica Balteata (Corn Root Worm); experiment: Diabrotica balteata on maize sprouts, spray; conditions: 96 h, application rate 200 ppm, L2 larvae on maize sprouts, 4 days after infestation, read-out: effect in at least one of the two categories (mortality or growth inhibition)
Procedure: Maize sprouts placed onto an agar layer in 24-well microtiter plates were treated with aqueous test solutions prepared from 10′000 ppm DMSO stock solutions by spraying. After drying, the plates were infested with L2 larvae (6 to 10 per well). The samples were assessed for mortality and growth inhibition in comparison to untreated samples 4 days after infestation.
(§1) The following compounds gave an effect of at least 80% in at least one of the two categories (mortality or growth inhibition) at an application rate of 200 ppm: […]

[2] = tested on: Myzus persicae (Green Peach Aphid); experiment: Myzus persicae feeding/contact activity on sunflower leaf discs; conditions: foliar, 144 h, application rate 200 ppm, aphid population of mixed ages on sunflower leaf discs, 6 days after infestation
Procedure: Feeding/Contact activity Sunflower leaf discs were placed onto agar in a 24-well microtiter plate and sprayed with aqueous test solutions prepared from 10′000 ppm DMSO stock solutions. After drying, the leaf discs were infested with an aphid population of mixed ages. The samples were assessed for mortality 6 days after infestation.

[3] = tested on: Euschistus heros (Neotropical Brown Stink Bug); experiment: Euschistus heros on soybean leaves, spray; conditions: 120 h, application rate 200 ppm, N2 nymphs on soybean leaves, 5 days after infestation, read-out: effect in at least one of the two categories (mortality or growth inhibition)
Procedure: Soybean leaves on agar in 24-well microtiter plates were sprayed with aqueous test solutions prepared from 10′000 ppm DMSO stock solutions. After drying the leaves were infested with N2 nymphs. The samples were assessed for mortality and growth inhibition in comparison to untreated samples 5 days after infestation.
as §1

[4] = tested on: Plutella xylostella (Diamond Back Moth); experiment: Plutella xylostella on artificial diet; conditions: 120 h, application rate 200 ppm, L2 larvae on artificial diet, 5 days after infestation, read-out: effect in at least one of the two categories (mortality or growth inhibition)
Procedure: 24-well microtiter plates with artificial diet were treated with aqueous test solutions prepared from 10′000 ppm DMSO stock solutions by pipetting. After drying, the plates were infested with L2 larvae (10 to 15 per well). The samples were assessed for mortality and growth inhibition in comparison to untreated samples 5 days after infestation.
as §1

[5] = tested on: Spodoptera littoralis (Egyptian Cotton Leaf Worm); experiment: Spodoptera littoralis on cotton leaf discs, spray; conditions: foliar, 72 h, application rate 200 ppm, L1 larvae on cotton leaf discs, 3 days after infestation
Procedure: Cotton leaf discs were placed onto agar in 24-well microtiter plates and sprayed with aqueous test solutions prepared from 10′000 ppm DMSO stock solutions. After drying the leaf discs were infested with five L1 larvae. The samples were assessed for mortality, anti-feeding effect, and growth inhibition in comparison to untreated samples 3 days after infestation. Control of Spodoptera littoralis by a test sample is given when at least one of the categories mortality, anti-feedant effect, and growth inhibition is higher than the untreated sample.

[6] = tested on: Bemisia tabaci (Cotton White Fly); experiment: Bemisia tabaci feeding/contact activity on cotton leaf discs; conditions: foliar, 144 h, application rate 200 ppm, adult white flies on cotton leaf discs, 6 days after incubation
Procedure: Feeding/contact activity Cotton leaf discs were placed on agar in 24-well microtiter plates and sprayed with aqueous test solutions prepared from 10′000 ppm DMSO stock solutions. After drying the leaf discs were infested with adult white flies. The samples were checked for mortality 6 days after incubation.

[7] = tested on: Spodoptera littoralis (Egyptian Cotton Leaf Worm); experiment: Spodoptera littoralis, uptake by lettuce roots from agar; conditions: 144 h, test rate 12.5 ppm, compound absorbed by lettuce roots, 6 days after infestation, read-out: effect in at least one of the three categories (mortality, anti-feeding, or growth inhibition)
Text: Test compounds were applied by pipette from 10′000 ppm DMSO stock solutions into 24-well plates and mixed with agar. Lettuce seeds were placed onto the agar and the multi well plate was closed by another plate which contained also agar. After 7 days the compound was absorbed by the roots and the lettuce grew into the lid plate. The lettuce leaves were then cut off into the lid plate. Spodoptera eggs were pipetted through a plastic stencil onto a humid gel blotting paper and the lid plate was closed with it. The samples were assessed for mortality, anti-feedant effect and growth inhibition in comparison to untreated samples 6 days after infestation.
The following compounds gave an effect of at least 80% in at least one of the three categories (mortality, anti-feeding, or growth inhibition) at a test rate of 12.5 ppm: A3, A4, A5, A6, A8, A10, B3, B4, B5 and C2.

[8] = tested on: Aedes aegypti (Yellow Fever Mosquito); experiment: Aedes aegypti adult contact test on dried deposits; conditions: application rate 200 ppm in ethanol, adult females, after 48 h and/or 24 h
Procedure: Test solutions, at an application rate of 200 ppm in ethanol, were applied to 12 well tissue culture plates. Once the deposits were dry, five, two to five day old adult female Aedes aegypti were added to each well, and sustained with a 10% sucrose solution in a cotton wool plug. Assessment of knockdown was made one hour after introduction, and mortality was assessed at 24 and 48 hours after introduction.
The following compounds gave at least 80% control of Aedes aegypti after 48 h and/or 24 h: […]

CCSc1c(-c2nc3cc(C(F)(F)F)cnc3n2C)sc2ccccc12 [Compound A1, 2-(3-ethylsulfanylbenzothiophen-2-yl)-3-methyl-6-(trifluoromethyl)imidazo[4,5-b]pyridine]
≥ 80%: percent effect (mortality or growth inhibition) at 200 ppm [1] | mortality at 200 ppm [2]

CCS(=O)(=O)c1c(-c2nc3cc(C(F)(F)F)cnc3n2C)sc2ccccc12 [Compound A2, 2-(3-ethylsulfonylbenzothiophen-2-yl)-3-methyl-6-(trifluoromethyl)imidazo [4,5-b] pyridine]
≥ 80%: percent effect (mortality or growth inhibition) at 200 ppm [1] | percent effect (mortality or growth inhibition) at 200 ppm [3] | mortality at 200 ppm [2] | percent effect (mortality or growth inhibition) at 200 ppm [4] | percent control (mortality, anti-feedant effect or growth inhibition) at 200 ppm [5]

CCS(=O)(=O)c1c(-c2nc3cc(SC(F)(F)F)cnc3n2C)sc2cc(Br)ccc12 [Compound A4, 2-(6-bromo-3-ethylsulfonyl-benzothiophen-2-yl)-3-methyl-6-(trifluoromethylsulfanyl)imidazo[4,5-b]pyridine]
≥ 80%: mortality at 200 ppm [6] | percent effect (mortality or growth inhibition) at 200 ppm [1] | percent effect (mortality or growth inhibition) at 200 ppm [3] | mortality at 200 ppm [2] | percent effect (mortality or growth inhibition) at 200 ppm [4] | percent control (mortality, anti-feedant effect or growth inhibition) at 200 ppm [5] | percent effect (mortality, anti-feeding or growth inhibition) at 12.5 ppm [7] | pest or weed control at 200 ppm [8]

CCSc1c(-c2nc3cc(C(F)(F)F)cnc3n2C)sc2cc(C(F)(F)F)ccc12 [Compound A5]
≥ 80%: percent effect (mortality or growth inhibition) at 200 ppm [1] | percent effect (mortality or growth inhibition) at 200 ppm [3] | percent effect (mortality or growth inhibition) at 200 ppm [4] | percent control (mortality, anti-feedant effect or growth inhibition) at 200 ppm [5] | percent effect (mortality, anti-feeding or growth inhibition) at 12.5 ppm [7] | pest or weed control at 200 ppm [8]

CCS(=O)(=O)c1c(-c2nc3cc(C(F)(F)F)cnc3n2C)sc2cc(C(F)(F)F)ccc12 [Compound A6]
≥ 80%: mortality at 200 ppm [6] | percent effect (mortality or growth inhibition) at 200 ppm [1] | percent effect (mortality or growth inhibition) at 200 ppm [3] | mortality at 200 ppm [2] | percent effect (mortality or growth inhibition) at 200 ppm [4] | percent control (mortality, anti-feedant effect or growth inhibition) at 200 ppm [5] | percent effect (mortality, anti-feeding or growth inhibition) at 12.5 ppm [7] | pest or weed control at 200 ppm [8]

CCSc1c(-c2nc3cc(C(F)(F)F)cnc3n2C)sc2cc(Br)ccc12 [Compound A7, 2-(6-bromo-3-ethylsulfanyl-benzothiophen-2-yl)-3-methyl-6-(trifluoromethyl)imidazo[4,5-b]pyridine]
≥ 80%: percent effect (mortality or growth inhibition) at 200 ppm [1] | percent effect (mortality or growth inhibition) at 200 ppm [3] | percent effect (mortality or growth inhibition) at 200 ppm [4] | percent control (mortality, anti-feedant effect or growth inhibition) at 200 ppm [5] | pest or weed control at 200 ppm [8]

CCS(=O)(=O)c1c(-c2nc3cc(C(F)(F)F)cnc3n2C)sc2cc(Br)ccc12 [Compound A8, 2-(6-bromo-3-ethylsulfonyl-benzothiophen-2-yl)-3-methyl-6-(trifluoromethyl)imidazo[4,5-b]pyridine]
≥ 80%: mortality at 200 ppm [6] | percent effect (mortality or growth inhibition) at 200 ppm [1] | percent effect (mortality or growth inhibition) at 200 ppm [3] | mortality at 200 ppm [2] | percent effect (mortality or growth inhibition) at 200 ppm [4] | percent control (mortality, anti-feedant effect or growth inhibition) at 200 ppm [5] | percent effect (mortality, anti-feeding or growth inhibition) at 12.5 ppm [7] | pest or weed control at 200 ppm [8]

CCS(=O)(=O)c1c(-c2nc3cc(C(F)(F)F)cnc3n2C)sc2cc(-n3ccc(C(F)(F)F)n3)ccc12 [Compound A9, 2-[3-ethylsulfonyl-6-[3-(trifluoromethyl)pyrazol-1-yl]benzothiophen-2-yl]-3-methyl-6-(trifluoromethyl)imidazo[4,5-b]pyridine]
≥ 80%: percent effect (mortality or growth inhibition) at 200 ppm [1] | percent effect (mortality or growth inhibition) at 200 ppm [4] | percent control (mortality, anti-feedant effect or growth inhibition) at 200 ppm [5]

CCS(=O)(=O)c1c(-c2nc3cc(C(F)(F)F)cnc3n2C)sc2cc(SC(F)(F)F)ccc12 [Compound A10, 2-[3-ethylsulfonyl-6-(trifluoromethylsulfanyl)benzothiophen-2-yl]-3-methyl-6-(trifluoromethyl)imidazo[4,5-b]pyridine]
≥ 80%: percent effect (mortality or growth inhibition) at 200 ppm [1] | percent effect (mortality or growth inhibition) at 200 ppm [3] | mortality at 200 ppm [2] | percent effect (mortality or growth inhibition) at 200 ppm [4] | percent control (mortality, anti-feedant effect or growth inhibition) at 200 ppm [5] | percent effect (mortality, anti-feeding or growth inhibition) at 12.5 ppm [7] | pest or weed control at 200 ppm [8]

CCS(=O)(=O)c1c(-c2nc3cc(C(F)(F)F)cnc3n2C)sc2cc(C3CC3)ccc12 [Compound A11, 2-(6-cyclopropyl-3-ethylsulfonyl-benzothiophen-2-yl)-3-methyl-6-(trifluoromethyl)imidazo[4,5-b]pyridine]
≥ 80%: percent effect (mortality or growth inhibition) at 200 ppm [1] | percent effect (mortality or growth inhibition) at 200 ppm [3] | mortality at 200 ppm [2] | percent effect (mortality or growth inhibition) at 200 ppm [4] | percent control (mortality, anti-feedant effect or growth inhibition) at 200 ppm [5]

CCS(=O)(=O)c1c(-c2nc3cc(C(F)(F)F)cnc3n2C)sc2cc(C(F)(F)C(F)(F)F)ccc12 [Compound A12]
≥ 80%: percent effect (mortality or growth inhibition) at 200 ppm [1] | percent effect (mortality or growth inhibition) at 200 ppm [3] | percent effect (mortality or growth inhibition) at 200 ppm [4] | percent control (mortality, anti-feedant effect or growth inhibition) at 200 ppm [5] | pest or weed control at 200 ppm [8]

CCS(=O)(=O)c1c(-c2nc3cnc(C(F)(F)F)cc3n2C)sc2ccccc12 [Compound B2, 2-(3-ethylsulfonylbenzothiophen-2-yl)-1-methyl-6-(trifluoromethyl)imidazo[4,5-c]pyridine]
≥ 80%: percent effect (mortality or growth inhibition) at 200 ppm [1] | percent effect (mortality or growth inhibition) at 200 ppm [3] | mortality at 200 ppm [2] | percent effect (mortality or growth inhibition) at 200 ppm [4] | percent control (mortality, anti-feedant effect or growth inhibition) at 200 ppm [5]

CCS(=O)(=O)c1c(-c2nc3cc(C(F)(F)F)ncc3n2C)sc2cc(C(F)(F)F)ccc12 [Compound B4, 2-[3-ethylsulfonyl-6-(trifluoromethyl)benzothiophen-2-yl]-3-methyl-6-(trifluoromethyl) imidazo[4,5-c]pyridine]
≥ 80%: mortality at 200 ppm [6] | percent effect (mortality or growth inhibition) at 200 ppm [1] | percent effect (mortality or growth inhibition) at 200 ppm [3] | mortality at 200 ppm [2] | percent effect (mortality or growth inhibition) at 200 ppm [4] | percent control (mortality, anti-feedant effect or growth inhibition) at 200 ppm [5] | percent effect (mortality, anti-feeding or growth inhibition) at 12.5 ppm [7] | pest or weed control at 200 ppm [8]

CCSc1c(-c2nc3cc(C(F)(F)F)ccc3n2C)sc2cc(C(F)(F)F)ccc12 [Compound C1]
≥ 80%: percent effect (mortality or growth inhibition) at 200 ppm [1] | percent effect (mortality or growth inhibition) at 200 ppm [4] | percent control (mortality, anti-feedant effect or growth inhibition) at 200 ppm [5]

CCS(=O)(=O)c1c(-c2nc3cc(C(F)(F)F)ccc3n2C)sc2cc(C(F)(F)F)ccc12 [Compound C2]
≥ 80%: mortality at 200 ppm [6] | percent effect (mortality or growth inhibition) at 200 ppm [1] | percent effect (mortality or growth inhibition) at 200 ppm [4] | percent control (mortality, anti-feedant effect or growth inhibition) at 200 ppm [5] | percent effect (mortality, anti-feeding or growth inhibition) at 12.5 ppm [7] | pest or weed control at 200 ppm [8]
